From patent US12391676B2 (H. LEE MOFFITT CANCER CENTER AND RESEARCH INSTITUTE, INC., priority 2018, dated 2025) come the findings set out here.

Assay [1] concerns the target T1, BRD4 (Homo sapiens (Human), UniProt O60885). The experiment in a line: BRD4 DSF thermal shift (ΔTm). In kind it is binding. Particulars: for BRD4 DSF (ΔTm): Table 2; for DSF ΔTm: Table 1.
The target in the next assay is JAK2 (Homo sapiens (Human), UniProt O60674). The experiment in a line: JAK2 IC50. In kind it is biochemical. Particulars: Table 2.
Sequence of JAK2 (O60674 whole entry): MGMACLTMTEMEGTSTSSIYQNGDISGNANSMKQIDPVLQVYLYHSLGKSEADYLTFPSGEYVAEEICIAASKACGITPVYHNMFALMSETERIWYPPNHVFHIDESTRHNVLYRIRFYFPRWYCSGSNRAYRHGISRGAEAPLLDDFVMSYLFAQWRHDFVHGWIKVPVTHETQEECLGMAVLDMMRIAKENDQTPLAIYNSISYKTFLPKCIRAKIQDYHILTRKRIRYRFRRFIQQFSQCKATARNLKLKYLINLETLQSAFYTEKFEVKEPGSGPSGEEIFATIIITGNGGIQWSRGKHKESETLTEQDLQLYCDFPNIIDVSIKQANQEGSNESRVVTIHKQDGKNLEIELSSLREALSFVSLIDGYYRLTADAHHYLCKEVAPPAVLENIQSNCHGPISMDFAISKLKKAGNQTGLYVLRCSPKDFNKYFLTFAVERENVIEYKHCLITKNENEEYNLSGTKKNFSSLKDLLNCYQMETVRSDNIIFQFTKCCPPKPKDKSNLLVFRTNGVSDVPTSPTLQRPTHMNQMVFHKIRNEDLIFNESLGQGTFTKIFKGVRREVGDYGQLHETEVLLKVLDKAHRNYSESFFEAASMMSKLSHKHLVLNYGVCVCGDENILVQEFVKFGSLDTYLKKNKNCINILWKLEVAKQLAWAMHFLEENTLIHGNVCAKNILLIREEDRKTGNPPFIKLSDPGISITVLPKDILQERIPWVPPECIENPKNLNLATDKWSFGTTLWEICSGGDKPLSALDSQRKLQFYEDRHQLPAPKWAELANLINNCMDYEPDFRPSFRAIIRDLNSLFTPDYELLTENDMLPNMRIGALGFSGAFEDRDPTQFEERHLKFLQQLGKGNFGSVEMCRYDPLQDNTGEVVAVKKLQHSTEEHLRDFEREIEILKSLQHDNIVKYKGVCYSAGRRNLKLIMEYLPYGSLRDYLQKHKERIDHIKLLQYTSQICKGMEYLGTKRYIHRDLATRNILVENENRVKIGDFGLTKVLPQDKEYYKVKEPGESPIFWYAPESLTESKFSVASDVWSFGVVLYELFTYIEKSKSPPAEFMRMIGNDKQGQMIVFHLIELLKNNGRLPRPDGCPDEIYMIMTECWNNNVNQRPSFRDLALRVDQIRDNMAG
For assay [2], the system named is UKE1 cells. The experiment in a line: Growth inhibition GI50, UKE1 cells. In kind it is cell-based.
In another assay the test system is MM1.S cells. In words: Antiproliferative activity, MM1.S cells. In kind it is cell-based. Particulars: Homo sapiens; for GI50: Table 2, read-out: GI50 (MM1S). The protocol:
Cellular activity of promising compounds is assessed using MM.1S and MV4-11 AML cells using c-Myc levels as biomarker (6-12 hr treatment) and antiproliferative activity (48-72 hr treatment) as described (Ciceri et al., Dual kinase-bromodomain inhibitors for rationally designed polypharmacology. Nat Chem Biol 2014).

Assay [3] concerns UKE1 cells. The experiment in a line: Drug persistence of UKE1 cells under escalating drug concentration. Particulars: for development of drug persistence: UKE1 cells started at GI20, concentration doubled if growth >90% of DMSO; for final drug concentration at the end of the experiment: drug persistence experiment. It counts as cell-based. The protocol:
UKE1 cells were incubated with DMSO, MA9-060, fedratinib, or ruxolitinib at their respective GI20 concentrations. Cell growth was compared to DMSO. Cells were passed back to the same density after counting. Drug concentration was doubled if growth was >90% of DMSO. Fold GI20 is plotted vs time, with drug persistence represented by upward steps of the lines. The final MA9-060, ruxolitinib, and fedratinib concentrations at the end of the experiment were 0.15, 0.6 and 2.4 uM, respectively. Fedratinib-treated cells lost complete viability after about 30 days (after 3 weeks in 2.4 uM).

Assay [4] deals with T1, BRD4. The experiment in a line: BRD4 IC50. In kind it is binding. Particulars: Table 2.
Setting [5] is: UKE1, Table 2, read-out: GI50 (UKE1).
Setting [6] is: UKE1, Table 1 comments, read-out: GI50 (UKE1 cells).

Where two headings read alike, the source gives them in different places.

Consider `Cc1cnc(Nc2ccc(C3CCN(C)CC3)cc2)nc1Nc1cccc(NS(=O)(=O)C(C)(C)C)c1` [SY3-034, 2-Methyl-N-(3-((5-methyl-2-((4-(1-methylpiperidin-4-yl)phenyl)amino)pyrimidin-4-yl)amino)phenyl)propane-2-sulfonamide], for which the “BRD4 DSF (ΔTm)” value on BRD4 [1] was 10.6 °C. Moreover, on JAK2, it took 1.6 nM to reach half-maximal inhibition (IC50). Moreover, the GI50 stood at 220 nM in the assay on UKE1 cells [2] (setting [5]) and 91 nM in the assay with MM1.S cells.

In the case of `Cc1cnc(Nc2cc(F)c(C3CCN(C)CC3)c(F)c2)nc1Nc1ccc2c(c1)N(S(=O)(=O)C(C)(C)C)CC2` [PN2-129, N^4-(1-(tert-butylsulfonyl)indolin-6-yl)-N^2-(3,5-difluoro-4-(1-methylpiperidin-4-yl)phenyl)-5-methylpyrimidine-2,4-diamine], the “BRD4 DSF (ΔTm)” value at BRD4 [1] turned out to be 13.8 °C. Besides, the GI50 in the assay on UKE1 cells [2] (setting [5]) was 222 nM; in the assay on MM1.S cells it was 152 nM.

Turning to `Cc1cnc(Nc2ccc(OCCN3CCCC3)cc2)nc1Nc1cccc(S(=O)(=O)NC(C)(C)C)c1` [fedratinib], the “development of drug persistence” value with UKE1 cells [3] is recorded as “persistently grew in increasing concentrations”. Also, in the assay with UKE1 cells [3] (UKE1 cells, after 3 weeks in 2.4 uM), the “time until treated cells lost complete viability” value is on record as “about 30 days”. In addition, in the assay with UKE1 cells [3] (UKE1 cells), the “final drug concentration at the end of the experiment” value came to 2.4 µM.

For `N#CC[C@H](C1CCCC1)n1cc(-c2ncnc3[nH]ccc23)cn1` [ruxolitinib], the “development of drug persistence” value in the assay on UKE1 cells [3] was “persistently grew in increasing concentrations”. Further, the “final drug concentration at the end of the experiment” value in the assay with UKE1 cells [3] (UKE1 cells) turned out to be 0.6 µM.

Take `Cc1ccc(Nc2nc(Nc3ccc(C4CCN(C)CC4)c(F)c3)ncc2C)cc1NS(=O)(=O)C(C)(C)C` [PN2-173, N-(5-((2-((3-Fluoro-4-(1-methylpiperidin-4-yl)phenyl)amino)-5-methylpyrimidin-4-yl)amino)-2-methylphenyl)-2-methylpropane-2-sulfonamide]: the “BRD4 DSF (ΔTm)” value at BRD4 [1] turned out to be 12.3 °C. Also, the GI50 in the assay on UKE1 cells [2] (setting [5]) amounted to 463 nM.

Turning to `Cc1cnc(Nc2ccc(C3CCN(C)CC3)c(F)c2)nc1Nc1ccc2c(c1)N(S(=O)(=O)C(C)(C)C)CC2` [MA9-086, N4-(1-(Tert-butylsulfonyl)indolin-6-yl)-N2-(3-fluoro-4-(1-methylpiperidin-4-yl)phenyl)-5-methylpyrimidine-2,4-diamine], on BRD4 [1], the “BRD4 DSF (ΔTm)” value came to 13.4 °C. Also, the values for the IC50 against BRD4 [4] and at JAK2 were 6.4 nM and 1.1 nM, respectively. In the assay with MM1.S cells, the GI50 is 194 nM.

`Cc1cnc(Nc2cc(F)c(C3CCN(C)CC3)cn2)nc1Nc1ccc(Cl)c(NS(=O)(=O)C(C)(C)C)c1` [PN1-064, N-(2-Chloro-5-((2-((4-fluoro-5-(1-methylpiperidin-4-yl)pyridin-2-yl)amino)-5-methylpyrimidin-4-yl)amino)phenyl)-2-methylpropane-2-sulfonamide]: the “BRD4 DSF (ΔTm)” value on BRD4 [1] stood at 13.6 °C. Besides, the values for the GI50 in the assay with UKE1 cells [2] (setting [5]) and in the assay with MM1.S cells were 54 nM and 43 nM, respectively.

Regarding `Cc1ccc(Nc2nc(Nc3cc(F)c(C4CCN(C)CC4)c(F)c3)ncc2C)cc1NS(=O)(=O)C(C)(C)C` [PN2-174, N-(5-((2-((3,5-Difluoro-4-(1-methylpiperidin-4-yl)phenyl)amino)-5-methylpyrimidin-4-yl)amino)-2-methylphenyl)-2-methylpropane-2-sulfonamide], on BRD4 [1], the “BRD4 DSF (ΔTm)” value came out at 13.3 °C. In addition, the GI50 in the assay with UKE1 cells [2] (setting [5]) worked out at 194 nM.

For `Cc1cnc(Nc2ccc(OCCN3CCCC3)c(F)c2)nc1Nc1ccc2c(c1)N(S(=O)(=O)C(C)(C)C)CC2` [MA11-007, N4-(1-(tert-butylsulfonyl)indolin-6-yl)-N2-(3-fluoro-4-(2-(pyrrolidin-1-yl)ethoxy)phenyl)-5-methylpyrimidine-2,4-diamine], on BRD4 [1], the “BRD4 DSF (ΔTm)” value amounted to 13.7 °C. Moreover, the GI50 was found to be 260 nM in the assay with UKE1 cells [2] (setting [5]) and 135 nM with MM1.S cells.

As for `Cc1cnc(Nc2ccc(OCCN3CCCC3)cc2)nc1Nc1ccc2c(c1)N(S(=O)(=O)C(C)(C)C)CC2` [MA11-006, N4-(1-(tert-butylsulfonyl)indolin-6-yl)-5-methyl-N2-(4-(2-(pyrrolidin-1-yl)ethoxy)phenyl)pyrimidine-2,4-diamine], the “BRD4 DSF (ΔTm)” value on BRD4 [1] worked out at 11.0 °C. In addition, the GI50 in the assay with UKE1 cells [2] (setting [5]) is 502 nM; in the assay on MM1.S cells, 499 nM.

Regarding `Cc1cnc(Nc2cc(F)c(C3CCN(C)CC3)c(F)c2)nc1Nc1cccc(NS(=O)(=O)C(C)(C)C)n1` [MA11-035, N-(6-((2-((3,5-difluoro-4-(1-methylpiperidin-4-yl)phenyl)amino)-5-methylpyrimidin-4-yl)amino)pyridin-2-yl)-2-methylpropane-2-sulfonamide], the “BRD4 DSF (ΔTm)” value on BRD4 [1] amounted to 5.1 °C. In the assay on UKE1 cells [2] (setting [5]), the GI50 stood at 761 nM.

`Cc1cnc(Nc2cc(F)c(C3CCN(C)CC3)cn2)nc1Nc1ccc(F)c(NS(=O)(=O)C(C)(C)C)c1` [PN2-089, N-(2-Fluoro-5-((2-((4-fluoro-5-(1-methylpiperidin-4-yl)pyridin-2-yl)amino)-5-methylpyrimidin-4-yl)amino)phenyl)-2-methylpropane-2-sulfonamide]: the “BRD4 DSF (ΔTm)” value at BRD4 [1] stood at 13.4 °C. The GI50 in the assay with UKE1 cells [2] (setting [5]) is 134 nM; with MM1.S cells, 72 nM.

With `Cc1cnc(Nc2cc(F)c(C3CCN(C)CC3)c(F)c2)nc1Nc1ccc2ccn(S(=O)(=O)C(C)(C)C)c2n1` [MA11-012, N4-(1-(tert-butylsulfonyl)-1H-pyrrolo[2,3-b]pyridin-6-yl)-N2-(3,5-difluoro-4-(1-methylpiperidin-4-yl)phenyl)-5-methylpyrimidine-2,4-diamine], at BRD4 [1], the “BRD4 DSF (ΔTm)” value stood at 3.9 °C. For the same compound, the GI50 in the assay on UKE1 cells [2] (setting [5]) worked out at 580 nM.

With `Cc1cnc(Nc2ccc(C3CCN(C)CC3)cc2)nc1Nc1cccc(NS(=O)(=O)C(C)(C)C)c1` [drawing 12], the “DSF ΔTm” value on BRD4 [1] turned out to be 10.6 °C. Also, in the assay with UKE1 cells [2] (setting [6]), the GI50 stood at 220 nM. Besides, half-maximal inhibition in the assay on MM1.S cells (Table 1 comments) (IC50) required 91 nM.

Take `Cc1cnc(Nc2ccc(C3CCN(C)CC3)c(F)c2)nc1Nc1cccc(NS(=O)(=O)C(C)(C)C)n1` [MA11-032, N-(6-((2-((3-fluoro-4-(1-methylpiperidin-4-yl)phenyl)amino)-5-methylpyrimidin-4-yl)amino)pyridin-2-yl)-2-methylpropane-2-sulfonamide]: the GI50 in the assay with UKE1 cells [2] (setting [5]) was 385 nM.

As for `Cc1cnc(Nc2ccc(C3CCN(C)CC3)c(F)c2)nc1Nc1cnc(Cl)c(NS(=O)(=O)C(C)(C)C)c1` [MA11-016, N-(2-chloro-5-((2-((3-fluoro-4-(1-methylpiperidin-4-yl)phenyl)amino)-5-methylpyrimidin-4-yl)amino)pyridin-3-yl)-2-methylpropane-2-sulfonamide], the “BRD4 DSF (ΔTm)” value on BRD4 [1] came to 14.8 °C. Also, the GI50 in the assay on UKE1 cells [2] (setting [5]) was determined as 110 nM.

Take `Cc1cnc(Nc2cc(F)c(C3CCN(C)CC3)c(F)c2)nc1Nc1cc(F)cc(NS(=O)(=O)C(C)(C)C)c1` [PN3-053, N-(3-((2-((3,5-Difluoro-4-(1-methylpiperidin-4-yl)phenyl)amino)-5-methylpyrimidin-4-yl)amino)-5-fluorophenyl)-2-methylpropane-2-sulfonamide]: the GI50 in the assay with UKE1 cells [2] (setting [5]) turned out to be 185 nM.

Consider `Cc1cnc(Nc2ccc(C3CCN(C)CC3)c(F)c2)nc1Nc1cc(Cl)cc(NS(=O)(=O)C(C)(C)C)c1` [PN3-076, N-(3-Chloro-5-((2-((3-fluoro-4-(1-methylpiperidin-4-yl)phenyl)amino)-5-methylpyrimidin-4-yl)amino)phenyl)-2-methylpropane-2-sulfonamide], for which the GI50 in the assay on UKE1 cells [2] (setting [5]) turned out to be 1100 nM.

For the compound `Cc1cnc(Nc2ccc(C3CCN(C)CC3)c(F)c2)nc1Nc1cccc(NS(=O)(=O)C(C)(C)C)c1` [drawing 13], on BRD4 [1], the “DSF ΔTm” value was 12.3 °C. Further, in the assay on UKE1 cells [2] (setting [6]), the GI50 was found to be 110 nM.

As for `Cc1cnc(Nc2cc(F)c(C3CCN(C)CC3)c(F)c2)nc1Nc1cnc(Cl)c(NS(=O)(=O)C(C)(C)C)c1` [MA11-017, N-(2-chloro-5-((2-((3,5-difluoro-4-(1-methylpiperidin-4-yl)phenyl)amino)-5-methylpyrimidin-4-yl)amino)pyridin-3-yl)-2-methylpropane-2-sulfonamide], on BRD4 [1], the “BRD4 DSF (ΔTm)” value was 14.3 °C. Besides, in the assay on UKE1 cells [2] (setting [5]), the GI50 stood at 102 nM.

With `Cc1ccc(Nc2nc(Nc3cc(F)c(C4CCN(C)CC4)cn3)ncc2C)cc1NS(=O)(=O)C(C)(C)C` [PN2-175, N-(5-((2-((4-Fluoro-5-(1-methylpiperidin-4-yl)pyridin-2-yl)amino)-5-methylpyrimidin-4-yl)amino)-2-methylphenyl)-2-methylpropane-2-sulfonamide], the “BRD4 DSF (ΔTm)” value at BRD4 [1] is 12.6 °C. In the assay with UKE1 cells [2] (setting [5]), the GI50 is 220 nM.

Consider `Cc1cnc(Nc2cc(F)c(C3CCN(C)CC3)cn2)nc1Nc1ccc2c(c1)N(S(=O)(=O)C(C)(C)C)CC2` [PN2-128, N^4-(1-(tert-Butylsulfonyl)indolin-6-yl)-N^2-(4-fluoro-5-(1-methylpiperidin-4-yl)pyridin-2-yl)-5-methylpyrimidine-2,4-diamine], for which the “BRD4 DSF (ΔTm)” value on BRD4 [1] is 12.8 °C. In addition, the GI50 amounted to 207 nM in the assay with UKE1 cells [2] (setting [5]) and 186 nM in the assay on MM1.S cells.

As for `Cc1cnc(Nc2ccc(N3CCN(C)CC3)c(F)c2)cc1Nc1cccc(S(=O)(=O)NC(C)(C)C)c1` [MA9-024, N-(Tert-butyl)-3-((2-((3-fluoro-4-(4-methylpiperazin-1-yl)phenyl)amino)-5-methylpyridin-4-yl)amino)benzenesulfonamide], the “BRD4 DSF (ΔTm)” value at BRD4 [1] amounted to 4.1 °C. The GI50 in the assay with UKE1 cells [2] (setting [5]) was greater than 24000 nM; in the assay on MM1.S cells, 4790 nM.
